The values below come from patent publication US20250319012A1, “METHOD FOR PREPARING LOW-MOLECULAR-WEIGHT SILK SERICIN, AND COSMETIC COMPOSITION COMPRISING SERICIN PREPARED THEREBY” (HEWON CO., LTD., priority 2021, published 2025).

In the assay the test system is soluble sericin. Put plainly: Hydrolytic activity of enzymes on soluble sericin (absorbance of supernatant at 271 nm). Type of assay: biochemical. Conditions: 10% enzyme, pH 7, 8 hours, 30-70° C. tested. The procedure: To confirm the degree of hydrolysis of sericin according to the kinds of enzyme, a total of 7 kinds of endopeptidase type alcalase, esperase, protamax, bromelain, papain, neutrase and exopeptidase type flavourzyme were prepared. At this time, sericin extracted from the sericin prepared in Preparation Example 1 at 120° C. for 30 minutes was used as a substrate sample, and after centrifugation, insoluble sericin was removed and soluble sericin was used. […]
The reactants after hydrolysis were subjected to enzyme inactivation at 85° C. for 10 min, and then the supernatant was collected by centrifugation (10,000 rpm, 10 min). After diluting the supernatant 20 times with D/W, the absorbance value measured at 271 nm, which is the maximum absorption wavelength of sericin, with a spectrophotometer (UV/VIS Nano Spectrophotometer, Nabi, Microdigital) was used as a measure of solubility.
In order to minimize the change in pH during the enzyme reaction of Preparation Example 2, the pH was adjusted using 1 M acetic acid and an average of 26.5% ammonia hydroxide. 1 mg of soluble sericin was treated with 0.1 mg of an enzyme (10% of sericin concentration), […], and then the supernatant was collected to measure the absorbance with pH change. […]

Regarding bromelain, the “temperature at which high hydrolytic activity was shown” value was 50 °C.

B1: papain: endopeptidase type enzyme (protein, UniProt P00784 134-345, looked up)
Papain: IPEYVDWRQKGAVTPVKNQGSCGSCWAFSAVVTIEGIIKIRTGNLNEYSEQELLDCDRRSYGCNGGYPWSALQLVAQYGIHYRNTYPYEGVQRYCRSREKGPYAAKTDGVRQVQPYNEGALLYSIANQPVSVVLEAAGKDFQLYRGGIFVGPCGNKVDHAVAAVGYGPNYILIKNSWGTGWGENGYIRIKRGTGNSYGVCGLYTSSFYPVKN
Regarding B1, the “temperature at which high hydrolytic activity was shown” value stood at 60 °C.
